Reference: PubChem BioAssay AID1033 (Sanford-Burnham Center for Chemical Genomics, 2008)
The source made the active and inactive calls. No rule for the calls is given here.

Target: Chaperone protein DnaK (Escherichia coli (strain K12)) (UniProt P0A6Y8)
Test: binders of DnaK substrate-binding domain, biophysical, NMR, chaperone (AID 1033)
Conditions: Purified DnaK SBD, NMR ligand binding

Chain of Chaperone protein DnaK (Escherichia coli (strain K12)) (P0A6Y8 whole entry, looked up, the tested form may be a part): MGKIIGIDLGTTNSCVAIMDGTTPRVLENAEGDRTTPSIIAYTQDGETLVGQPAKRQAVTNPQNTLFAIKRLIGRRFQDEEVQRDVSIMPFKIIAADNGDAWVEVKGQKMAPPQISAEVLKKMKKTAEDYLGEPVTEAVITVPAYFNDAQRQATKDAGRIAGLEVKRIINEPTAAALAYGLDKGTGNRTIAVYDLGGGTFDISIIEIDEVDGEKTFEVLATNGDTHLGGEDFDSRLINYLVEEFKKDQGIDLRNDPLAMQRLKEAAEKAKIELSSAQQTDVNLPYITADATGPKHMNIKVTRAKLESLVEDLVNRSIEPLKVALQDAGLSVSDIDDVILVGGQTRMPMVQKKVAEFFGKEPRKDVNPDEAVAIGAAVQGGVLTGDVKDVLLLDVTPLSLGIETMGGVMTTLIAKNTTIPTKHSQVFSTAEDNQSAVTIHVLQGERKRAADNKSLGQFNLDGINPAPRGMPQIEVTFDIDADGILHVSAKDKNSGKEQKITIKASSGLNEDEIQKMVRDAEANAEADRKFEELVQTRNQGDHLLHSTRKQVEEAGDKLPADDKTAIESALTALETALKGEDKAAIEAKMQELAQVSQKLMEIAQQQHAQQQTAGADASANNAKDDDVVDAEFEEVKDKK

| SMILES | Kd |
| --- | --- |
| NC1=C([N+](=O)[O-])C(=O)c2ccccc21 | > 4 mM (inactive) |
| Cc1nc(-c2cccc(-c3noc(C)n3)c2)no1 | > 4 mM (inactive) |
| O=C(O)C(O)C(O)C(O)C(O)C(=O)O (stereo not given) | > 4 mM (inactive) |
| O=C(c1ccco1)N1CCn2c1nc1ccccc12 | > 4 mM (inactive) |
| CCC[C@@H]1CCCCN1 | > 4 mM (inactive) |
| Cc1ccc(C(=O)N2CC(=O)NC(=O)C2)cc1 | > 4 mM (inactive) |
| CCOc1ccc2nc(NS(C)(=O)=O)sc2c1 | > 4 mM (inactive) |
| S=C(Cc1cccnc1)N1CCOCC1 | > 4 mM (inactive) |
| CCOC(=O)C1CCNCC1 | > 4 mM (inactive) |
| O=C1N=C(N2CCOCC2)S/C1=C\c1cccnc1 | > 4 mM (inactive) |
| OCc1ccc(OC(F)(F)F)cc1 | > 4 mM (inactive) |
| O=C(Nc1nccs1)c1cccnc1 | > 4 mM (inactive) |
| Nc1ncnc(NCCOCCO)c1[N+](=O)[O-] | > 4 mM (inactive) |
| COc1ccc(CC(=O)c2ccc(O)cc2O)cc1 | > 4 mM (inactive) |
| CN(c1ccc(C(=O)N2CCCCC2)cc1)S(C)(=O)=O | > 4 mM (inactive) |
| O=C(C1CCC(C(=O)N2CCCC2)CC1)N1CCCC1 (stereo not given) | > 4 mM (inactive) |
| COc1ccc(-c2nnc(-c3ccc(N)cc3)o2)cc1 | > 4 mM (inactive) |
| CC(C)NC(=O)c1cc(-n2cnnc2)ccc1Cl | > 4 mM (inactive) |
| Oc1cccc2[nH]ccc12 | > 4 mM (inactive) |
| COc1c(-c2ccccc2)oc2c(OC)cccc2c1=O | > 4 mM (inactive) |

| SMILES | Kd |
| --- | --- |
| C=CCc1ccc(O)c(OC)c1 | > 4 mM (inactive) |
| CCNS(=O)(=O)c1ccc(OC)c(C)c1 | > 4 mM (inactive) |
| O=C(O)c1cc(O)c2c(c1)C(=O)c1cc(O)cc(O)c1C2=O | > 4 mM (inactive) |
| O=C(O)C1CN2CCC1CC2 (stereo not given) | > 4 mM (inactive) |
| CC1(C)CCC(C)(C)c2cc(C(=O)O)ccc21 | > 4 mM (inactive) |
| O=C(NCO)c1ccc([N+](=O)[O-])cc1 | > 4 mM (inactive) |
| Cc1c(N=CN(C)C)c(=O)n(-c2ccccc2)n1C | > 4 mM (inactive) |
| CC1(C)C2CC(=O)[C@]3(C)C(CC[C@@]4(C)[C@H](c5ccoc5)OC(=O)[C@H]5O[C@]543)[C@@]2(C)C(=O)C[C@H]1O (stereo not given in full) | > 4 mM (inactive) |
| O=C1C=CC(=O)c2c(O)cccc21 | > 4 mM (inactive) |
| Cc1cc(C)c(NC(=O)CN2CCC(O)CC2)c(C)c1 | > 4 mM (inactive) |
| CCC(=O)Nc1cccc(NC(C)=O)c1 | > 4 mM (inactive) |
| COC(=O)c1ccc(/C=C2/NC(=S)NC2=O)cc1 | > 4 mM (inactive) |
| O=C(O)C1CSC(c2ccccc2)N1 (stereo not given) | > 4 mM (inactive) |
| CS(=O)(=O)N/N=C/c1cccs1 | > 4 mM (inactive) |
| O=C1CN(C(=O)c2ccccc2)c2ccccc2N1 | > 4 mM (inactive) |
| C=CCCCCCCCCCCCc1ccco1 | > 4 mM (inactive) |
| Cc1ccc(SCC(=O)N2CCOCC2)cc1 | > 4 mM (inactive) |
| O=C1CSC(=O)N1CN1CCOCC1 | > 4 mM (inactive) |
| COc1ccc(-c2nnsc2N)cc1 | > 4 mM (inactive) |
| Oc1ccccc1N1CCOCC1 | > 4 mM (inactive) |

| SMILES | Kd |
| --- | --- |
| CC(=O)c1c(C)n([O-])c2ccccc2[n+]1=O | > 4 mM (inactive) |
| CSc1nnc(-c2ccccc2NC(C)=O)o1 | > 4 mM (inactive) |
| COc1ccc2cnn(-c3ccccc3)c(=O)c2c1OC | > 4 mM (inactive) |
| CCN(CC)c1nc2n(c(=O)n1)CCO2 | > 4 mM (inactive) |
| CC(=O)Oc1cc(OC(C)=O)c2c(c1)O[C@H](c1ccc(OC(C)=O)c(OC(C)=O)c1)[C@H](OC(C)=O)C2 | > 4 mM (inactive) |
| O=C(O)c1ccccc1N1CCOCC1 | > 4 mM (inactive) |
| O=C1CSC(=Nc2ccccc2[N+](=O)[O-])N1 | > 4 mM (inactive) |
| COc1ccc2c(c1)OC1(O)COc3cc(OC)c(OC)cc3C1=C2 (stereo not given) | > 4 mM (inactive) |
| O=C(O)Cn1nnn(-c2ccccc2)c1=S | > 4 mM (inactive) |
| COc1ccc(CN2CCNC(=O)C2CC(=O)O)cc1C (stereo not given) | > 4 mM (inactive) |
| OCc1ccc(N2CCOCC2)nc1 | > 4 mM (inactive) |
| Cc1nc(-c2ccc(C(=O)O)s2)cs1 | > 4 mM (inactive) |
| CS(=O)(=O)N1CCN(C(=O)c2ccccc2)C1 | > 4 mM (inactive) |
| Nc1cccc(CC(=S)N2CCOCC2)c1 | > 4 mM (inactive) |
| Cn1c(=O)c2c(ncn2C)n(C)c1=O | > 4 mM (inactive) |
| O=c1cccc2n1C[C@H]1CNCC2C1 | > 4 mM (inactive) |
| CC1(O)CC2C=CC1C2 (stereo not given) | > 4 mM (inactive) |
| Cc1ccccc1CSc1nncn1N | > 4 mM (inactive) |
| c1ccc(-c2nc3ccccc3nc2-c2ccccn2)nc1 | > 4 mM (inactive) |
| NC(=O)CSc1ccc(-c2ccccc2)nn1 | > 4 mM (inactive) |
